# Measurements from ChEMBL document CHEMBL1201862, “PubChem BioAssay data set” (2004).
# The source made the active and inactive calls.
# Assays:
# [1] = cells; assay type: functional, cell-based
# [2] = cells; assay type: functional, cell-based; remark: listed apart in the source
# [3] = target: T1, Probable nicotinate-nucleotide adenylyltransferase (Staphylococcus aureus (strain N315), UniProt P65502); assay type: functional, Staphylococcus aureus subsp. aureus N315;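 for IC50 Mean: confirmatory dose-response retesting of NadD inhibitor hits first found in an ultra-high-throughput screen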
# T1 sequence (P65502 whole entry): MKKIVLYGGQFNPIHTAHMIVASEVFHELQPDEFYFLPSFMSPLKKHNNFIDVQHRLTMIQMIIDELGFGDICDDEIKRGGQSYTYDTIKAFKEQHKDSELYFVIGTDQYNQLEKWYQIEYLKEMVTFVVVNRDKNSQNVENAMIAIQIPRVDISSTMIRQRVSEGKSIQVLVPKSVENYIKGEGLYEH
# [4] = target: T1, Probable nicotinate-nucleotide adenylyltransferase; assay type: functional, Staphylococcus aureus subsp. aureus N315; conditions: read-out: IC50_Mean
# [5] = Luminescence Cell-Based Dose Confirmation HTS to Identify Activators of 5'UTR Stem-Loop Driven Alpha-Synuclein mRNA Translation in H4 Neuroglioblastoma Cells. [Related pubchem assays: 1829 (Project Summary), 1814 (Primary HTS)]; assay type: functional
# [6] = Luminescence Cell-Based Dose Response HTS to Identify Activators of Luciferase Translation or Activity in H4 […] Cells. [Related pubchem assays: 1829 (Project Summary), 1814 (Primary HTS)]; assay type: functional
# [7] = system: Streptococcus sp. 'group A'; assay: growth inhibition of control SK(-) GAS strain, dose response, counter-screen for streptokinase expression inhibitor project, luminescence, kanamycin, BacTiterGlo, confirmation (AID 1900); assay type: functional, organism-based
# [8] = system: H4; assay: Luminescence Cell-Based Dose Response HTS to Identify Activators of 5'UTR Stem-Loop Driven Prion Protein mRNA Translation in H4 Neuroglioblastoma Cells. [Related pubchem assays: 1829 (Project Summary), 1814 (Primary HTS)]; assay type: functional; conditions: Homo sapiens
# [9] = system: Streptococcus; assay: Group A Streptococcus viability loss, dose response, counter-screen for streptokinase expression inhibitor project, luminescence, BacTiterGlo (AID 1915); assay type: functional, organism-based;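 note: potency for reduction of bacterial viability or growth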
# [10] = target: T2, Endoribonuclease toxin MazF (Escherichia coli K-12, UniProt P0AE70); assay: MazF toxin RNase activators, dose response, biochemical, fluorescence, single-stranded RNA substrate, uHTS hits (AID 588481); assay type: functional
# T2 sequence (P0AE70 whole entry): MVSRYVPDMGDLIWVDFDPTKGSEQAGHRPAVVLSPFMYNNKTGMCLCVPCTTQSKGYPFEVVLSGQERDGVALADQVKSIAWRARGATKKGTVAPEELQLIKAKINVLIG
# [11] = target: T2, Endoribonuclease toxin MazF; assay: fluorescent RNA oligo signal without MazF, dose response, counter-screen for MazEF activator project, biochemical, fluorescence, single-stranded RNase substrate (AID 588502); assay type: functional
# [12] = cells; assay type: functional, cell-based; remark: listed apart in the source
# [13] = target: T3, Nuclear receptor subfamily 0 group B member 1 (Homo sapiens, UniProt P51843); assay type: functional, cell-based;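 note: HEK293T cells transfected with SF-1 and DAX-1 plus StAR promoter luciferase reporter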
# T3 sequence (P51843 whole entry): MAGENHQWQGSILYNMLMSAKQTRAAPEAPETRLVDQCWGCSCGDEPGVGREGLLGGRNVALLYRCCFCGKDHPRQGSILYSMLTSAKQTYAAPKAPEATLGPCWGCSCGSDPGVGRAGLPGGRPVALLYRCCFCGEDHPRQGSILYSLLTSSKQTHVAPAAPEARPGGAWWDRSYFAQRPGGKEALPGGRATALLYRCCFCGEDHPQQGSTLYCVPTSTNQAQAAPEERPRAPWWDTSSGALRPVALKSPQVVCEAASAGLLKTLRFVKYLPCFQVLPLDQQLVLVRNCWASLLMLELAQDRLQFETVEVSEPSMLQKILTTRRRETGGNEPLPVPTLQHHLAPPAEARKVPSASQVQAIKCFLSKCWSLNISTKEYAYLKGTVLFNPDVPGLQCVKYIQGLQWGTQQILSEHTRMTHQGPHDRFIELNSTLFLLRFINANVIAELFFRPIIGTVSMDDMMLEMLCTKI
# [14] = target: T4, Small ubiquitin-related modifier 1 (Homo sapiens, UniProt P63165); assay: inhibitors of SUMO1 peptide binding, dose response, biochemical, fluorescence polarization, uHTS hits (AID 624382); assay type: functional; conditions: read-out: IC50_Mean
# T4 sequence (P63165 whole entry): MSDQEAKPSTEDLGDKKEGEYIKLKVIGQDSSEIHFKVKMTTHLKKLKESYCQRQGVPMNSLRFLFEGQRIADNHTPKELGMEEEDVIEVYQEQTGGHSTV
# [15] = target: T4, Small ubiquitin-related modifier 1; assay: inhibitors of SUMO1 partner interactions, dose response, biochemical, FRET (AID 624383); assay type: functional; conditions: read-out: IC50_Mean
# [16] = target: T5, Sentrin-specific protease 8 (Homo sapiens, UniProt Q96LD8); assay type: functional
# T5 sequence (Q96LD8 whole entry): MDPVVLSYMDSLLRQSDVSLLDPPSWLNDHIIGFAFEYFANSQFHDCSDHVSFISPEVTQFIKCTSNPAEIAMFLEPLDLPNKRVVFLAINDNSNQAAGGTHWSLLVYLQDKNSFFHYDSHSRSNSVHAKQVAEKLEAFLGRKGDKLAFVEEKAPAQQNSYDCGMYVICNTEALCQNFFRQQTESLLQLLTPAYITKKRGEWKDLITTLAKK
# [17] = target: T5, Sentrin-specific protease 8; assay type: functional; remark: listed apart in the source
# [18] = target: NS3 (Hepatitis C virus, UniProt A3EZJ3); assay: PubChem AID 2173; set-up: species or system Hepacivirus hominis
# Sequence of NS3 (A3EZJ3 whole entry): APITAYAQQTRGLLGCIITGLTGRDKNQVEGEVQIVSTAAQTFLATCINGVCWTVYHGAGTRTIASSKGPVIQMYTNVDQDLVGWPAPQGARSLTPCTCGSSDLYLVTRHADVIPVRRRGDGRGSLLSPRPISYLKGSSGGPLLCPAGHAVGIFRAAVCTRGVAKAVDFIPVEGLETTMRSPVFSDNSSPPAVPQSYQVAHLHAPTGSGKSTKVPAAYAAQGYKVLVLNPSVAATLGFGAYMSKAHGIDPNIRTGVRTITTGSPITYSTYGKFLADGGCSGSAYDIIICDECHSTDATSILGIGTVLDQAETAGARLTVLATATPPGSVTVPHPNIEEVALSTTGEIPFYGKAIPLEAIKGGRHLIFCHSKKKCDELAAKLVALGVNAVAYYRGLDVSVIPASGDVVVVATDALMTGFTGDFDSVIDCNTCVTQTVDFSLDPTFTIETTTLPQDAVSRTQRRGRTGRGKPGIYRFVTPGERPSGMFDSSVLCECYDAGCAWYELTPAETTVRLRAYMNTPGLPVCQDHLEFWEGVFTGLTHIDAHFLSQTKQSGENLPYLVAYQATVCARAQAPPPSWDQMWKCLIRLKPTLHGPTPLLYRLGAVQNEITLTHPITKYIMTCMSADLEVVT
# [19] = target: Induced myeloid leukemia cell differentiation protein Mcl-1 (Homo sapiens, UniProt Q07820); assay type: functional
# Sequence of Induced myeloid leukemia cell differentiation protein Mcl-1 (Q07820 whole entry): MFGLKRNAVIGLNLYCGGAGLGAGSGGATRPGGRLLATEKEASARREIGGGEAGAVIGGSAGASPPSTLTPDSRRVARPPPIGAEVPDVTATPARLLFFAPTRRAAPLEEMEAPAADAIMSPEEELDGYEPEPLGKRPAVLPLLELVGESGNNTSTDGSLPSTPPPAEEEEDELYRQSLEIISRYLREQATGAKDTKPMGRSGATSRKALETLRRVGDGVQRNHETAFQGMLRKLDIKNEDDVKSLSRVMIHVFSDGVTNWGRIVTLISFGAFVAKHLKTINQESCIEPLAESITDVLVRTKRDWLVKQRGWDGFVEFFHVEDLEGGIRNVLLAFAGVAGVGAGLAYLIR
# [20] = target: Glucose-6-phosphate 1-dehydrogenase (Homo sapiens, UniProt P11413); assay: human G6PD enzyme inhibitors, dose response, selectivity assay for P. falciparum G6PD inhibitor project, biochemical, fluorescence (AID 504792); assay type: functional
# Sequence of Glucose-6-phosphate 1-dehydrogenase (P11413 whole entry): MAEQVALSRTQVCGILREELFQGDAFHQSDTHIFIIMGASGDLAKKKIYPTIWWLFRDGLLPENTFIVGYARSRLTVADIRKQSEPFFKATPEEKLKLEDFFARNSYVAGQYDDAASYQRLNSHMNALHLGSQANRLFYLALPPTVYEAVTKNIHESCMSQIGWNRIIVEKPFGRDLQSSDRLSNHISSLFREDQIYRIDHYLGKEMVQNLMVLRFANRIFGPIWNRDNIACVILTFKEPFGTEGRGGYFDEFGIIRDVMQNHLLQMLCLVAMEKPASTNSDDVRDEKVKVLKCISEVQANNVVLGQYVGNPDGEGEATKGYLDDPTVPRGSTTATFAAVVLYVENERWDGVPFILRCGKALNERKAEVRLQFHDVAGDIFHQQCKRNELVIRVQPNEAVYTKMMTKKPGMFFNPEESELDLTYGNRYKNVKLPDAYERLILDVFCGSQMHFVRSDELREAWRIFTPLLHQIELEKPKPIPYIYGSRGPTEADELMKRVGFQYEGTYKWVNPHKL
# [21] = target: T6, Heat shock factor protein 1 (Mus musculus, UniProt P38532); assay: HSF1 potentiators in luciferase reporter cells, confirmation, cell-based, NIH3T3, luminescence, dose retest (AID 435004); assay type: functional;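 note: stress induced by proteasome inhibitor MG132 added 30 min after compound; luciferase reporter driven by HSF1 response element in NIH3T3 cells; actives raise luminescence as potentiators of the MG132 stress response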
# T6 sequence (P38532 whole entry): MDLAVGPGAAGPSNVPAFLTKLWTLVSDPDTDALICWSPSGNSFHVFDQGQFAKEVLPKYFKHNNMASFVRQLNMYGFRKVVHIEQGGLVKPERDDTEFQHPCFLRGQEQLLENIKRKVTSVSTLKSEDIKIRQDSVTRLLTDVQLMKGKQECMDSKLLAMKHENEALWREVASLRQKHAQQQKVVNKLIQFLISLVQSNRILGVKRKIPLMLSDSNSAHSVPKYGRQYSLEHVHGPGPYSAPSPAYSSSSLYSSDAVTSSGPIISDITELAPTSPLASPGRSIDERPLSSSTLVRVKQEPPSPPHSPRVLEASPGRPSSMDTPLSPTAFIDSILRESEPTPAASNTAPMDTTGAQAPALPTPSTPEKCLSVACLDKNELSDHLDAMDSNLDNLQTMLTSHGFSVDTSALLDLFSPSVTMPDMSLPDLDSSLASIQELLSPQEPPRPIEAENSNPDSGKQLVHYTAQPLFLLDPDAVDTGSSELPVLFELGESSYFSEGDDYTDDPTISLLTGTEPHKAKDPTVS
# [22] = target: Genome polyprotein (dengue virus type 2, UniProt P29990); assay: Dengue-2 NS5 methyltransferase inhibitors, primary screen, biochemical, confirmation dose response (AID 588689); assay type: functional
# Sequence of Genome polyprotein (P29990 2492-3391 limits assumed): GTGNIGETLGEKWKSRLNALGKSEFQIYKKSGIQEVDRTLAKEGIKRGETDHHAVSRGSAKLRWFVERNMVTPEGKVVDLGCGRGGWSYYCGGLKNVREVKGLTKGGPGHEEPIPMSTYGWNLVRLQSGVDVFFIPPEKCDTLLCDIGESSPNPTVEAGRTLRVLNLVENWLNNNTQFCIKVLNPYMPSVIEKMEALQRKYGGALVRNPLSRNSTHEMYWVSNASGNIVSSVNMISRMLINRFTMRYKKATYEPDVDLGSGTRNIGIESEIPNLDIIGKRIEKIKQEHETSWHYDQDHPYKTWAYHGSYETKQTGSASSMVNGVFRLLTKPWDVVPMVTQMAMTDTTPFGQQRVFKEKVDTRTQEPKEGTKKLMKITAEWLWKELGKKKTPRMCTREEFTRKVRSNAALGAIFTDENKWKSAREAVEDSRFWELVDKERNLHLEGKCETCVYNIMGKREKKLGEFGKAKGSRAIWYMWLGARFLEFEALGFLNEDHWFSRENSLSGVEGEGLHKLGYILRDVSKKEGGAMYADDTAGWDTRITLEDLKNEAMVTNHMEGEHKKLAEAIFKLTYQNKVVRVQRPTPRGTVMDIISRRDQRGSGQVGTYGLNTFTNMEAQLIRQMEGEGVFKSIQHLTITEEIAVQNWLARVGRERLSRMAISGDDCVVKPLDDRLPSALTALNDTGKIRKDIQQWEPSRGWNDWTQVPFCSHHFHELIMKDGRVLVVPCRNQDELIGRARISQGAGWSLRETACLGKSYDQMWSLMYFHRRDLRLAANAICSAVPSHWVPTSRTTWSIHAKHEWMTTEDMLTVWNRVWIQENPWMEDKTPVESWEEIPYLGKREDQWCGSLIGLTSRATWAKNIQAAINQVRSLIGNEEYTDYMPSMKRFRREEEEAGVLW
# [23] = target: T7, Carboxy-terminal domain RNA polymerase II polypeptide A small phosphatase 1 (Homo sapiens, UniProt Q9GZU7); assay: inhibitors of CTDSP1, concentration-response testing, biochemical assay, absorbance-based, actives from ultra-high-throughput screening (AID 540297); assay type: functional
# T7 sequence (Q9GZU7 whole entry): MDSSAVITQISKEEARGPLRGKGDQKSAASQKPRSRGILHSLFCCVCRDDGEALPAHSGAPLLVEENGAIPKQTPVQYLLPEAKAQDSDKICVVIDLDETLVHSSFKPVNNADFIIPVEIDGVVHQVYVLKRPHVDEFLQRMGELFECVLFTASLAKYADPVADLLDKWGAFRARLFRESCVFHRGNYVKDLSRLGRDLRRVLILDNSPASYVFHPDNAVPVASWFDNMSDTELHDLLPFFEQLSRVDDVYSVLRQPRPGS
# [24] = target: DNA (cytosine-5)-methyltransferase 1 (Homo sapiens, UniProt P26358); assay: DNMT1 methyltransferase inhibitors, confirmation, biochemical, fluorescent molecular beacon (AID 602386); assay type: functional
# Sequence of DNA (cytosine-5)-methyltransferase 1 (P26358 whole entry): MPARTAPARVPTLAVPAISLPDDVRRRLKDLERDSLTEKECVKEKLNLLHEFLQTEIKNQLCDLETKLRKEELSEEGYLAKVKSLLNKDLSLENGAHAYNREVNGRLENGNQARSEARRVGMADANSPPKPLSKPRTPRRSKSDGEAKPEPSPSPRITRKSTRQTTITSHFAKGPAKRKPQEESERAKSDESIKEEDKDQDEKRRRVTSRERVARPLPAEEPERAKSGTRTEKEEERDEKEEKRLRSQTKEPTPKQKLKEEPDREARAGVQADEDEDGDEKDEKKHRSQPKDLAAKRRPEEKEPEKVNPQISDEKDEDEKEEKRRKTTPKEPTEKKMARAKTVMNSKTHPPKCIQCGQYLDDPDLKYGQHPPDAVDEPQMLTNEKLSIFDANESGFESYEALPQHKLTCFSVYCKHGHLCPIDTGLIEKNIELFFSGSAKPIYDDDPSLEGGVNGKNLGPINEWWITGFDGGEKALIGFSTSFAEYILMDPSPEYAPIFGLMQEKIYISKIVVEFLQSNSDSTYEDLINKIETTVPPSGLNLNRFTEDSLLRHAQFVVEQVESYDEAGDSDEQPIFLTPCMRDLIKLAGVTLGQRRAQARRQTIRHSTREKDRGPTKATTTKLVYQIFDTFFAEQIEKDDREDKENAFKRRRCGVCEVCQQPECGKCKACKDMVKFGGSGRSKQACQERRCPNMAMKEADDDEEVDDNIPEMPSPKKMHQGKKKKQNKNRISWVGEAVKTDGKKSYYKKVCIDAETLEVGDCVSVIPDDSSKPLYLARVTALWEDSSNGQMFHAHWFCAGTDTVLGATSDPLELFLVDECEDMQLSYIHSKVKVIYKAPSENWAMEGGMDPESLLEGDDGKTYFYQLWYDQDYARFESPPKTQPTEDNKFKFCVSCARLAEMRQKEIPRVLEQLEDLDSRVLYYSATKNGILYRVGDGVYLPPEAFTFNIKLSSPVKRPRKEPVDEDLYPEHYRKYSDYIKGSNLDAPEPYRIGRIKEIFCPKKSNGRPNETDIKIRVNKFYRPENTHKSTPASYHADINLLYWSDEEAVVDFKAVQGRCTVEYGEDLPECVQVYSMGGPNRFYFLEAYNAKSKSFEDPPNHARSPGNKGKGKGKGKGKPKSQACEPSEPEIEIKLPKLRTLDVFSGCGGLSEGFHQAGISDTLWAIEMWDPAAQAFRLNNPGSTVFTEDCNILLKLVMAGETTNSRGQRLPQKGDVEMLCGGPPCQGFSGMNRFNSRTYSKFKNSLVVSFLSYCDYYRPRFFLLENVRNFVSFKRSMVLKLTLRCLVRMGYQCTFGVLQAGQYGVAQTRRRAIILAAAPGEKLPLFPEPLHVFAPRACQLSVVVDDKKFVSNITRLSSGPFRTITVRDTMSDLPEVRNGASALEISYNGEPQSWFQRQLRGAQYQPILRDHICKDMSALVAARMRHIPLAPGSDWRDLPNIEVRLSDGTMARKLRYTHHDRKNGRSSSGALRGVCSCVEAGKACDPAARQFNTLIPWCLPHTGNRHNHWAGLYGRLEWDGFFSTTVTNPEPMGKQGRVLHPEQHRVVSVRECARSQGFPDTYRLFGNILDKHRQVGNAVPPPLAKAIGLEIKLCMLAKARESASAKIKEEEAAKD
# [25] = target: T8, Rac GTPase-activating protein 1 (Homo sapiens, UniProt Q9H0H5); assay: MgcRacGAP GTPase-activating activity inhibitors, confirmation, biochemical, ADP Hunter fluorescence, primary and confirmatory (AID 624330); assay type: functional
# T8 sequence (Q9H0H5 whole entry): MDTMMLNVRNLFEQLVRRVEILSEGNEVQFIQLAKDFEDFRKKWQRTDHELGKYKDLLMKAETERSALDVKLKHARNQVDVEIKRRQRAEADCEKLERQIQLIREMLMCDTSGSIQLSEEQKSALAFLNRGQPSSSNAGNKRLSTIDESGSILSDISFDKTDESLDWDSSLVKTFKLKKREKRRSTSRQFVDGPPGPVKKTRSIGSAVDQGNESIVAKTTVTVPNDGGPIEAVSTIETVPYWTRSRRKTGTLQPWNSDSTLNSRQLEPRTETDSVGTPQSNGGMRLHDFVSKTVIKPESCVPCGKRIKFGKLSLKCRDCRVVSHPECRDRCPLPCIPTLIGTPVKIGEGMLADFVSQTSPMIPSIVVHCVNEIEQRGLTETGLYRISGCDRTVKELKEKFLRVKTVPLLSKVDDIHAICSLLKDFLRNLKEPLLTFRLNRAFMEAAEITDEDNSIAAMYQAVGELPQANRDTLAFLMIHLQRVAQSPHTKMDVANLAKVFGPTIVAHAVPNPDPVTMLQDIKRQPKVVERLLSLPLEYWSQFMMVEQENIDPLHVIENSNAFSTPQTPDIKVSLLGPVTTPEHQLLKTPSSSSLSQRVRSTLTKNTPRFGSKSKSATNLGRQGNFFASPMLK
# [26] = cells; assay type: functional, cell-based; remark: listed apart in the source
# [27] = target: T9, Trace amine-associated receptor 1 (Homo sapiens, UniProt Q96RJ0); assay: Fluorescence-based cell-based high throughput dose response assay to identify agonists of the human trace amine associated receptor 1 (TAAR1).; assay type: functional
# T9 sequence (Q96RJ0 whole entry): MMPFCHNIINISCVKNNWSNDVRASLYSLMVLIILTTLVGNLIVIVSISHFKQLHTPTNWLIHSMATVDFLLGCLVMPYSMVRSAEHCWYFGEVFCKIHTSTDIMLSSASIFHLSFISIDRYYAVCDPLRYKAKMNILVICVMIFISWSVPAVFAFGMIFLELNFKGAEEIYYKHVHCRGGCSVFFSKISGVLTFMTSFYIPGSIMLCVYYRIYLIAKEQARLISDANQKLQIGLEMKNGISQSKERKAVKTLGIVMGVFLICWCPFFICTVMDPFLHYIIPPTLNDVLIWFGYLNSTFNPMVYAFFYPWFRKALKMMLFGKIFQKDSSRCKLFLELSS
# [28] = target: T9, Trace amine-associated receptor 1; assay: Counterscreen for agonists of the human trace amine associated receptor 1 (hTAAR1): Fluorescence-based cell-based high throughput dose response assay to identify hTAAR1 agonist that also desensitize TAAR1 receptor response.; assay type: functional
# [29] = cells; assay type: functional, cell-based; remark: listed apart in the source
# [30] = target: Albumin (Bos taurus, UniProt P02769); assay: Counterscreen for inhibitors of T-cell receptor (TCR)-CD3 interaction: Fluorescence-based biochemical high throughput dose response assay to identify inhibitors of T-cell receptor (TCR)-CD3 interaction using a TAMRA-labeled BSA probe.; assay type: functional
# Sequence of Albumin (P02769 whole entry): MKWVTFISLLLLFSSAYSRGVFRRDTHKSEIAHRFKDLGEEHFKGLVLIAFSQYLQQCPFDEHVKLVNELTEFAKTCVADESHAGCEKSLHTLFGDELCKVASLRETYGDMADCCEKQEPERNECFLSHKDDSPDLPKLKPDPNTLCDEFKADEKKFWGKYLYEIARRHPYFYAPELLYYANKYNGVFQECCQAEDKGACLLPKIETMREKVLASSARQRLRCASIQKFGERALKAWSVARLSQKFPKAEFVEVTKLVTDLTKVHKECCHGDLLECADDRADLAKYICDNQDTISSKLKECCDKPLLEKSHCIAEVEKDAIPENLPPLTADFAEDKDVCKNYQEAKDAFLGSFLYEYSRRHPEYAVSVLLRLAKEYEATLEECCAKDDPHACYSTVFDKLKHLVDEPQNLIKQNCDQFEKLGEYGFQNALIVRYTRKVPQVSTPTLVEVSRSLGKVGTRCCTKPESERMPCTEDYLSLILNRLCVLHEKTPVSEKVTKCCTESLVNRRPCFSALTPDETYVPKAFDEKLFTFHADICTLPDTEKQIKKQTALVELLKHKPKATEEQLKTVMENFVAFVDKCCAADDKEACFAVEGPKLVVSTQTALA
smiles,measurement,setting,value
Cc1ccc(C(=O)Nc2cccc([N+](=O)[O-])c2)cc1S(=O)(=O)Nc1ccc(NC(=O)c2ccccc2)cc1,EC50,[1],> 350 µM (not active)
same,EC50,[2],> 350 µM (not active)
same,IC50,[3],25.9 µM (active)
same,IC50,[4],61.1 µM (active)
Cc1ccc2nc(N3C(=O)C(O)=C(C(=O)c4ccco4)C3c3cccs3)sc2c1 (stereo not given),EC50,[5],> 120 µM (not active)
same,EC50,[6],> 120 µM (not active)
same,EC50,[7],2.82 µM (active)
same,EC50,[8],> 120 µM (not active)
same,EC50,[9],4.98 µM (active)
same,EC50,[10],> 99 µM (inactive)
same,EC50,[11],> 99 µM (inactive)
same,IC50,[12],> 67.5 µM (inactive)
same,IC50,[13],> 67.5 µM (inactive)
Cc1ccc(C2(C)NC(=O)N(CC(=O)Nc3ccc4[nH]c(=O)[nH]c4c3)C2=O)cc1 (stereo not given),IC50,[14],> 66.6 µM (inactive)
same,IC50,[15],16.5 µM (active)
COc1cccc(C2=NOC(C(=O)N3CCc4ccccc4C3)C2)c1 (stereo not given),IC50,[16],45.2 µM (active)
same,IC50,[17],9.21 µM (active)
Cc1ccc(/C=C/C(=O)Nc2ccc([N+](=O)[O-])c(NC(=O)/C=C/c3ccc(C)o3)c2)o1,IC50,[18],41.3 µM (not active)
same,IC50,[19],2.12 µM (active)
same,IC50,[20],> 80 µM (inactive)
same,EC50,[21],228 µM (active)
same,IC50,[22],> 100 µM (active)
same,IC50,[23],5.89 µM (active)
same,IC50,[24],7.18 µM (active)
same,IC50,[3],5.24 µM (active)
same,IC50,[4],15.3 µM (active)
same,IC50,[25],165 µM (active)
COCCn1nnnc1C(c1ccc(O)c(OC)c1)N1CCc2ccccc2C1 (stereo not given),IC50,[19],7.06 µM (active)
same,IC50,[26],> 29.9 µM (inactive)
same,EC50,[27],0.695 µM (active)
same,IC50,[28],3.75 µM (active)
same,EC50,[29],> 29.9 µM (inactive)
CC1=NN(c2ccc(C)cc2C)C(=O)C1C(c1ccccc1O)C1C(=O)N(c2ccc(C)cc2C)N=C1C (stereo not given),IC50,[16],7.5 µM (active)
same,IC50,[17],18.9 µM (active)
O=C(CSc1ccc(-c2ccncc2)nn1)c1ccc(Cl)cc1,IC50,[14],> 66.6 µM (inactive)
same,IC50,[15],12.1 µM (active)
O=C(CC1C(=O)NCCN1CCCc1ccccc1)NCCc1ccccc1F (stereo not given),IC50,[26],> 29.9 µM (inactive)
same,EC50,[27],1.71 µM (active)
same,IC50,[28],7.17 µM (active)
same,EC50,[29],> 29.9 µM (inactive)
Cc1cc([N+](=O)[O-])cc(/C=N/n2c(C)nc3ccccc3c2=O)c1O,EC50,[7],8.39 µM (active)
same,EC50,[9],7.71 µM (active)
same,IC50,[30],> 94 µM (inactive)
C/C(=N/NC(=O)c1cccs1)c1cccc(N)c1,IC50,[12],> 67.6 µM (inactive)
same,IC50,[13],> 67.6 µM (inactive)
